Test results as given in patent publication US20140179795A1, “Agent for Stabilizing Acetaminophen” (priority 2010, published 2014).

What was measured:
[1] = Stability under high-temperature and high-pressure conditions (121° C., 1 hour): color tone, precipitation, related substances by HPLC; type: physicochemical; design: key to Color tone: +++: deep brown; ++: slightly deep brown; +: light brown; ±: very little discoloration; −: no discoloration; key to Precipitation: +: visible precipitates; −: no precipitates; conditions: 1 w/v % acetaminophen, 5 w/v % xylitol, pH 5, 1-hour treatment; for Total amount of related substances (%): HPLC peak area 225 nm
Procedure: Aqueous compositions containing glycine at the concentrations shown in Table 1 below, 1 w/v % acetaminophen, 5 w/v % xylitol and phosphoric acid (q.s.) and having the pH of 5 were heat-treated at 121° C. for 1 hour, and subsequently visually observed in terms of the color tone (the degree of discoloration) and the presence of precipitates.
In addition, the concentration of acetaminophen-related substances in each aqueous composition was determined by HPLC. The HPLC conditions were as follows.
(§1) The analysis was performed using liquid chromatography as described in the purity test of acetaminophen (related substances) prescribed in the manual of the Japanese pharmacopoeia, 15th edition. That is, each solution was subjected to HPLC using an octadecyl silica gel column and a mobile phase prepared by mixing methanol and a potassium dihydrogen phosphate solution, the peak areas at the detection wavelength of 225 nm were determined by an automatic integration method, and the percentage of the summed peak areas of the related substances to the total area of all peaks (total amount of related substances (%)) was calculated.

[2] = Effects of pH on stability under extreme conditions (60° C., 21-day storage); type: physicochemical; design: key to Color tone: +++: deep brown; ++: slightly deep brown; +: light brown; ±: very little discoloration; −: no discoloration; key to Precipitation: +: visible precipitates; −: no precipitates; conditions: 0.56 w/v % glycine, 0.22 w/v % citric acid, 0.9 w/v % NaCl; for Total amount of related substances (%): HPLC
Procedure: as §1
Aqueous solutions with the pHs shown in Table 4 below were prepared by mixing 1 w/v % of acetaminophen, 0.56 w/v % of glycine, 0.22 w/v % of citric acid, 0.9 w/v % of NaCl, and NaOH or H3PO4 (q.s.). The aqueous solutions were autoclaved at 121° C. for 20 minutes and then stored at 60° C. for 21 days. Subsequently, the aqueous solutions were visually observed in terms of the color tone (the degree of discoloration) and the presence of precipitates. In addition, the concentration of acetaminophen-related substances in each aqueous solution was determined by HPLC.

In the case of CC(=O)Nc1ccc(O)cc1 [acetaminophen, N-(4-hydroxyphenyl)acetamide], the Color tone ([1]; glycine 0 w/v %) was “+”, the Precipitation ([1]; glycine 0 w/v %) was “−” and the “Total amount of related substances (%)” value ([1]; glycine 0 w/v %) was 0.33%. The Color tone ([1]; glycine 0.14 w/v %) was “−”, the Precipitation ([1]; glycine 0.14 w/v %) was “−” and the “Total amount of related substances (%)” value ([1]; glycine 0.14 w/v %) was 0.03%. The Color tone ([1]; glycine 0.28 w/v %) was “−”, the Precipitation ([1]; glycine 0.28 w/v %) was “−” and the “Total amount of related substances (%)” value ([1]; glycine 0.28 w/v %) was 0.01%. For the same compound, the Color tone ([1]; glycine 0.56 w/v %) was “−”, the Precipitation ([1]; glycine 0.56 w/v %) was “−” and the “Total amount of related substances (%)” value ([1]; glycine 0.56 w/v %) was 0%. The Color tone ([2]; pH 2, 1 w/v % acetaminophen) was “+++”, the Precipitation ([2]; pH 2, 1 w/v % acetaminophen) was “+” and the “Total amount of related substances (%)” value ([2]; pH 2, 1 w/v % acetaminophen) was 12.18%. The Color tone ([2]; pH 3, 1 w/v % acetaminophen) was “++”, the Precipitation ([2]; pH 3, 1 w/v % acetaminophen) was “+” and the “Total amount of related substances (%)” value ([2]; pH 3, 1 w/v % acetaminophen) was 5.44%. The Color tone ([2]; pH 4, 1 w/v % acetaminophen) was “±”, the Precipitation ([2]; pH 4, 1 w/v % acetaminophen) was “+” and the “Total amount of related substances (%)” value ([2]; pH 4, 1 w/v % acetaminophen) was 0.8%. The Color tone ([2]; pH 5, 1 w/v % acetaminophen) was “±”, the Precipitation ([2]; pH 5, 1 w/v % acetaminophen) was “−” and the “Total amount of related substances (%)” value ([2]; pH 5, 1 w/v % acetaminophen) was 0.05%. The Color tone ([2]; pH 6, 1 w/v % acetaminophen) was “+”, the Precipitation ([2]; pH 6, 1 w/v % acetaminophen) was “−” and the “Total amount of related substances (%)” value ([2]; pH 6, 1 w/v % acetaminophen) was 0.05%. For the same compound, the Color tone ([2]; pH 7, 1 w/v % acetaminophen) was “++”, the Precipitation ([2]; pH 7, 1 w/v % acetaminophen) was “−” and the “Total amount of related substances (%)” value ([2]; pH 7, 1 w/v % acetaminophen) was 0.06%. The Color tone ([2]; pH 8, 1 w/v % acetaminophen) was “+++”, the Precipitation ([2]; pH 8, 1 w/v % acetaminophen) was “+” and the “Total amount of related substances (%)” value ([2]; pH 8, 1 w/v % acetaminophen) was 0.07%.
